System: Rattus norvegicus
Conditions: short-term, duration: 28 days, oral, gavage, Sprague-Dawley

SMILES: O=S(=O)(O)C(F)(F)C(F)(F)C(F)(F)C(F)(F)C(F)(F)C(F)(F)C(F)(F)C(F)(F)F [Perfluorooctanesulfonic acid]
- LOEL (F, Clinical chemistry_Alanine aminotransferase): 2.5 mg/kg-day
- LOEL (F, Clinical chemistry_Albumin): 2.5 mg/kg-day
- LOEL (F, Clinical chemistry_Albumin/globulin ratio): 2.5 mg/kg-day
- LOEL (F, Clinical chemistry_Alkaline phosphatase): 2.5 mg/kg-day
- NOEL (F, Clinical chemistry_Aspartate aminotransferase): 5 mg/kg-day
- LOEL (F, Clinical chemistry_Cholesterol): 5 mg/kg-day
- LOEL (F, Clinical chemistry_Direct bilirubin): 2.5 mg/kg-day
- LOEL (F, Clinical chemistry_Free thyroxine): 0.312 mg/kg-day
- NOEL (F, Clinical chemistry_Globulin): 5 mg/kg-day
- NOEL (F, Clinical chemistry_Sorbitol dehydrogenase): 5 mg/kg-day
- NOEL (F, Clinical chemistry_Testosterone): 5 mg/kg-day
- NOEL (F, Clinical chemistry_Thyroid stimulating hormone): 5 mg/kg-day
- LOEL (F, Clinical chemistry_Total bile acids): 2.5 mg/kg-day
- LOEL (F, Clinical chemistry_Total bilirubin): 5 mg/kg-day
- LOEL (F, Clinical chemistry_Total protein): 5 mg/kg-day
- LOEL (F, Clinical chemistry_Total thyroxine): 0.312 mg/kg-day
- LOEL (F, Clinical chemistry_Total triiodothyronine): 0.625 mg/kg-day
- LOEL (F, Clinical chemistry_Triglycerides): 2.5 mg/kg-day
- LOEL (F, Gene expression_Acox1): 0.312 mg/kg-day
- LOEL (F, Gene expression_Cyp2b1): 0.312 mg/kg-day
- LOEL (F, Gene expression_Cyp2b2): 0.312 mg/kg-day
- LOEL (F, Gene expression_Cyp4a1): 0.312 mg/kg-day
- NOEL (F, Hematology_Erythrocytes): 5 mg/kg-day
- NOEL (F, Hematology_Hematocrit): 5 mg/kg-day
- NOEL (F, Hematology_Hemoglobin): 5 mg/kg-day
- NOEL (F, Hematology_Leukocytes): 5 mg/kg-day
- LOEL (F, Hematology_Reticulocytes): 2.5 mg/kg-day
- NOEL (F, Hematology_S. neutrophils): 5 mg/kg-day
- LOEL (F, Nonneoplastic effects_Bone marrow - Hypocellularity): 2.5 mg/kg-day
- NOEL (F, Nonneoplastic effects_Kidney - Papilla, necrosis): 5 mg/kg-day
- LOEL (F, Nonneoplastic effects_Liver - Hepatocyte, cytoplasmic alteration): 1.25 mg/kg-day
- LOEL (F, Nonneoplastic effects_Liver - Hepatocyte, hypertrophy): 1.25 mg/kg-day
- NOEL (F, Nonneoplastic effects_Liver - Hepatocyte, vacuolization cytoplasmic): 5 mg/kg-day
- NOEL (F, Nonneoplastic effects_Liver - Necrosis): 5 mg/kg-day
- NOEL (F, Nonneoplastic effects_Nose - Olfactory epithelium, degeneration): 5 mg/kg-day
- NOEL (F, Nonneoplastic effects_Nose - Olfactory epithelium, hyperplasia): 5 mg/kg-day
- NOEL (F, Nonneoplastic effects_Nose - Olfactory epithelium, inflammation, suppurative): 5 mg/kg-day
- NOEL (F, Nonneoplastic effects_Nose - Olfactory epithelium, necrosis): 5 mg/kg-day
- LOEL (F, Nonneoplastic effects_Spleen - Extramedullary hematopoiesis, decreased): 1.25 mg/kg-day
- NOEL (F, Nonneoplastic effects_Stomach, forestomach - Epithelium, hyperplasia): 5 mg/kg-day
- NOEL (F, Nonneoplastic effects_Thymus - Atrophy): 5 mg/kg-day
- LOEL (F, Organ weights_Heart - Absolute): 5 mg/kg-day
- LOEL (F, Organ weights_Heart - Relative): 5 mg/kg-day
- LOEL (F, Organ weights_Liver - Absolute): 0.312 mg/kg-day
- LOEL (F, Organ weights_Liver - Relative): 0.312 mg/kg-day
- NOEL (F, Organ weights_Lung - Absolute): 5 mg/kg-day
- LOEL (F, Organ weights_Lung - Relative): 1.25 mg/kg-day
- NOEL (F, Organ weights_R. adrenal gland - Absolute): 5 mg/kg-day
- NOEL (F, Organ weights_R. adrenal gland - Relative): 5 mg/kg-day
- NOEL (F, Organ weights_R. kidney - Absolute): 5 mg/kg-day
- NOEL (F, Organ weights_R. kidney - Relative): 5 mg/kg-day
- NOEL (F, Organ weights_Spleen - Absolute): 5 mg/kg-day
- NOEL (F, Organ weights_Spleen - Relative): 5 mg/kg-day
- LOEL (F, Organ weights_Thymus - Absolute): 1.25 mg/kg-day
- NOEL (F, Organ weights_Thymus - Relative): 5 mg/kg-day
- NOEL (F, Survival rates): 5 mg/kg-day
- LOEL (M, Clinical chemistry_Alanine aminotransferase): 0.625 mg/kg-day
- LOEL (M, Clinical chemistry_Albumin): 5 mg/kg-day
- LOEL (M, Clinical chemistry_Albumin/globulin ratio): 5 mg/kg-day
- LOEL (M, Clinical chemistry_Alkaline phosphatase): 0.625 mg/kg-day
- LOEL (M, Clinical chemistry_Aspartate aminotransferase): 0.625 mg/kg-day
- LOEL (M, Clinical chemistry_Cholesterol): 0.312 mg/kg-day
- LOEL (M, Clinical chemistry_Direct bilirubin): 5 mg/kg-day
- LOEL (M, Clinical chemistry_Free thyroxine): 0.312 mg/kg-day
- LOEL (M, Clinical chemistry_Globulin): 5 mg/kg-day
- NOEL (M, Clinical chemistry_Sorbitol dehydrogenase): 5 mg/kg-day
- NOEL (M, Clinical chemistry_Testosterone): 5 mg/kg-day
- NOEL (M, Clinical chemistry_Thyroid stimulating hormone): 5 mg/kg-day
- LOEL (M, Clinical chemistry_Total bile acids): 5 mg/kg-day
- NOEL (M, Clinical chemistry_Total bilirubin): 5 mg/kg-day
- NOEL (M, Clinical chemistry_Total protein): 5 mg/kg-day
- LOEL (M, Clinical chemistry_Total thyroxine): 0.312 mg/kg-day
- LOEL (M, Clinical chemistry_Total triiodothyronine): 0.625 mg/kg-day
- LOEL (M, Clinical chemistry_Triglycerides): 5 mg/kg-day
- LOEL (M, Gene expression_Acox1): 1.25 mg/kg-day
- LOEL (M, Gene expression_Acyl-CoA oxidase): 2.5 mg/kg-day
- LOEL (M, Gene expression_Cyp2b1): 0.312 mg/kg-day
- LOEL (M, Gene expression_Cyp2b2): 0.312 mg/kg-day
- LOEL (M, Gene expression_Cyp4a1): 0.312 mg/kg-day
- NOEL (M, Hematology_Erythrocytes): 5 mg/kg-day
- NOEL (M, Hematology_Hematocrit): 5 mg/kg-day
- NOEL (M, Hematology_Hemoglobin): 5 mg/kg-day
